Source: patent US20220402948A1, “EGFR INHIBITOR, COMPOSITION AND PREPARATION METHOD THEREFOR” (BETTA PHARMACEUTICALS CO., LTD., priority 2019, published 2022)
Read-outs that look alike come from different tables or passages of the source.

Columns and labels:
IGF1R = IGF1R (Homo sapiens, UniProt P08069); assay: IGF1R kinase test (mobility variation analysis, Caliper EZ Reader); format: biochemical; conditions: kinase enzymatic activity, Table 1; read-out: EGFR IGF1R IC50
Procedure, shortened: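 Kinase preincubated 10 min at room temperature with compound (10-point 3-fold series, top 3000 nM), then ATP and substrate added and reacted at room temperature. Substrate conversion read by mobility-shift (Caliper EZ Reader); % inhibition vs no-enzyme and no-compound controls fitted to variable-slope curve for IC50.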

EGFRΔ19del/T790M/C797S = EGFRΔ19del/T790M/C797S (Homo sapiens, UniProt P00533, T790M/C797S, form not given); assay: EGFR Δ19del/T790M/C797S kinase test (mobility variation analysis, Caliper EZ Reader); format: biochemical; conditions: kinase enzymatic activity, Table 1
Procedure, shortened: (§1)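 Kinase pre-incubated with compound 10 minutes at room temperature, then ATP plus peptide substrate added; substrate conversion read by mobility shift after stop solution. Percent inhibition normalized to no-compound and no-enzyme controls; IC50 from variable-slope log(inhibitor) fit.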

EGFR WT = EGFR WT (Homo sapiens, UniProt P00533); assay: EGFR WT kinase test (mobility variation analysis, Caliper EZ Reader); format: biochemical; conditions: kinase enzymatic activity, Table 1
Procedure, shortened: as §1

A431 = A431 cell proliferation assay (CellTiter Glo, 72 hours); format: cell-based; conditions: cell proliferation, A431, 72 hours, Table 2, read-out: A431 IC50
Procedure: (§2) Cell line: Ba/F3 cells with EGFR Δ19del/T790M/C797S mutation gene stably overexpressed named Ba/F3-Δ119del/T90M/C797S, and A431 and Ba/F3-EGFR wild-type cell line.
RPMI 1640 and 10% FBS and 1% PS; DMEM and 10% FBS and 1% PS.
a) Dilute the test compound (20 mM stock solution) to 10 mM with 100% DMSO as the starting concentration, and then serially dilute 3 times with a “9+0” concentration in 96-well dilution plate (Cat #P-05525, Labcyte);
b) Dilute compound solution thereof to 1:100 (1:20 for comparative compound 1 and compounds 1-38) in medium to prepare 10-fold working solution;
(§3) a) Centrifuge the growth cells in logarithmic phase at 1000 rpm for 5 minutes, resuspend the cells in culture medium, and then count the cells;
(§4) b) Inoculate the cells into a 96-well cell culture plate with a density of 2000 cells/well;
a) Compounds prepared at step 2 were added to cell plate with 15 μl per well, the final concentrations were 1000, 333, 111.1, 37, 12.3, 4.1, 1.4, 0.5, 0.2 and 0 nM, and the final concentration of DMSO was 0.1%. The blank control well was a culture medium (0.1% DMSO) (the blank control well of comparative compound 1 and compounds 1-38 was a culture medium (0.5% DMSO).
(§5) b) Incubate cells in an incubator for another 72 hours.
(§6) a) Take out the 96-well cell culture plate and add 50 μl CTG reagent (CellTiter Glo kit, promega, Cat #G7573);
(§7) b) Shake the plate for 2 minutes and let cool at room temperature for 10 minutes;
(§8) c) Read luminous signal value with PerkinElmer reader,
(§9) Analysis of Experimental Data
(§10) The data were analyzed by GraphPad Prism 6.0 software to obtain the fitting curve of compound activity.
Fitting compound IC50 from nonlinear regression equation:
(§11) Y=Min+(Max−Min)/(1+10^((Log IC50−X)*slope));
(§12) X: Logarithm of compound concentration; Y: luminous signal.

[1] = molecular target: Ba/F3 cells with EGFR Δ19del/T790M/C797S mutation gene stably overexpressed (Homo sapiens, UniProt P00533, T790M/C797S, cells depend on it, form not given); assay: Ba/F3-Δ19del/T790M/C797S cell proliferation assay (CellTiter Glo, 72 hours); format: cell-based; conditions: Table 2, read-out: EGFR Δ19del/T790M/C797S IC50
Procedure, shortened: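 Ba/F3 cells stably overexpressing wild-type EGFR or EGFR Δ19del/T790M/C797S were seeded at 2000 cells/well and incubated 72 h with compound. Viability was read by CellTiter-Glo luminescence, and IC50 came from a four-parameter logistic fit of signal against log concentration.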

[2] = molecular target: Ba/F3-EGFR wild-type cell line (Homo sapiens, UniProt P00533); assay: Ba/F3-EGFR wild-type cell proliferation assay (CellTiter Glo, 72 hours); format: cell-based; conditions: Table 2, read-out: EGFR WT IC50
Procedure: as §2, §3, §4, §5, §6, §7, §8, §9, §10, §11, §12

IGF1R, sequence (P08069 31-1367, species assumed): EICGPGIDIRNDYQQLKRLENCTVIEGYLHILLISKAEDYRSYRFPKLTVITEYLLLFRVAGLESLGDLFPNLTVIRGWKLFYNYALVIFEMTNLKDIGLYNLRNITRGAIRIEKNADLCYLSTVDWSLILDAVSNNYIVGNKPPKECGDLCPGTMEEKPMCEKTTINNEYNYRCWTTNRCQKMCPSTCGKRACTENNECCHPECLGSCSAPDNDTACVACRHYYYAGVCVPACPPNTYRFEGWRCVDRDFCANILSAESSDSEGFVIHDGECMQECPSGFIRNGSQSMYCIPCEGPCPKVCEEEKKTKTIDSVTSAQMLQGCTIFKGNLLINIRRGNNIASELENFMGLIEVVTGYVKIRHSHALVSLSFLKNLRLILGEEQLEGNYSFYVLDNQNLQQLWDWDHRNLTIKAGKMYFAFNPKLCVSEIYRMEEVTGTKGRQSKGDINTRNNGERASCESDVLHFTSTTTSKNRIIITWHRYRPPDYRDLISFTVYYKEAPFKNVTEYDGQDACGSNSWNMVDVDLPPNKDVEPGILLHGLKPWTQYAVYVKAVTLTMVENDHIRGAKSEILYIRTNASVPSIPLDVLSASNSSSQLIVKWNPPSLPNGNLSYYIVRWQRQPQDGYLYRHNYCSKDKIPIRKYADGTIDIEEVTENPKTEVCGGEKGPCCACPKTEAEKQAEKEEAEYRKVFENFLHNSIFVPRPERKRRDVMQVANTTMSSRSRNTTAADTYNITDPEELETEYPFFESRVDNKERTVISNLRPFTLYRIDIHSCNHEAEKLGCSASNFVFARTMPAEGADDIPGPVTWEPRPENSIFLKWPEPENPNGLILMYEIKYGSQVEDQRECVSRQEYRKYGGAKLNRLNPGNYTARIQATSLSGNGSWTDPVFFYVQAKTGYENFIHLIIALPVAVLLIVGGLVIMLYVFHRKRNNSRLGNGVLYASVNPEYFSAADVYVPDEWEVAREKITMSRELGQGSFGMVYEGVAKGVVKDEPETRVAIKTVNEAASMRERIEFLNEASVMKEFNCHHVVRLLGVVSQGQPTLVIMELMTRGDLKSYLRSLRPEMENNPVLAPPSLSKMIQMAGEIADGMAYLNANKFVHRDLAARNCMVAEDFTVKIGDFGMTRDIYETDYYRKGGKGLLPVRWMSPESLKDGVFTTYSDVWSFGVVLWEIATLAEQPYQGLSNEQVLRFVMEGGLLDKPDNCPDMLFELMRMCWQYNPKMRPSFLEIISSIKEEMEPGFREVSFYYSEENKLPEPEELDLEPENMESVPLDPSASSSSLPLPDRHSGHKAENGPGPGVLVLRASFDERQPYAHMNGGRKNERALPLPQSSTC

Compound | IC50 (IGF1R) [nM] | IC50 (EGFRΔ19del/T790M/C797S) [nM] | IC50 (EGFR WT) [nM] | IC50 (A431; Homo sapiens, A-431, 72 h) [nM] | GI50 [1] [nM] | GI50 [2] [nM] | IC50 (A431) [nM]
CCc1cc(Nc2ncc(Br)c(Nc3ccc(-c4cn(C)nc4C#N)cc3P(C)(C)=O)n2)c(OC)cc1N1CCC(N2CCN(C)CC2)CC1 [Compound 64, 4-(4-((5-Bromo-2-((5-ethyl-2-methoxy-4-(4-(4-methylpiperazin-1-yl)piperidin-1-yl)phenyl)amino]pyrimidin-4-yl)amino)-3-(dimethylphosphoryl)phenyl)-1-methyl-1H-pyrazole-3-carbonitrile] | 330 | 0.8 | 43.1 | > 10000 | 47.3 | – | –
CCc1cc(Nc2ncc(Br)c(Nc3ccc(-c4ncc(C(C)C)cn4)cc3P(C)(C)=O)n2)c(OC)cc1N1CCC(N2CCN(C)CC2)CC1 [Compound 73, (2-((5-Bromo-2-((5-ethyl-2-methoxy-4-(4-(4-methylpiperazin-1-yl)piperidin-1-yl)phenyl)amino)pyrimidin-4-yl)amino)-5-(5-isopropylpyrimidin-2-yl)phenyl)dimethylphosphine oxide] | 223 | 0.9 | 38 | 1530 | 39.5 | – | –
CCc1cc(Nc2ncc(Br)c(Nc3ccc(-c4cnc(N(C)C)nc4)cc3P(C)(C)=O)n2)c(OC)cc1N1CCC(N2CCN(C)CC2)CC1 [Compound 74, (2-((5-Bromo-2-((5-ethyl-2-methoxy-4-(4-(4-methylpiperazin-1-yl)piperidin-1-yl)phenyl)amino)pyrimidin-4-yl)amino)-5-(2-(dimethylamino)pyrimidin-5-yl)phenyl)dimethylphosphine oxide] | 186 | 0.3 | 24 | 1560 | 15.7 | – | –
CCOc1ncc(-c2ccc(Nc3nc(Nc4cc(CC)c(N5CCC(N6CCN(C)CC6)CC5)cc4OC)ncc3Br)c(P(C)(C)=O)c2)cn1 [Compound 76] | 114 | 0.3 | 36 | 1520 | 37.4 | – | –
CCc1cc(Nc2ncc(Br)c(Nc3ccc(-c4cnc(C5CC5)cn4)cc3P(C)(C)=O)n2)c(OC)cc1N1CCC(N2CCN(C)CC2)CC1 [Compound 79, (2-((5-Bromo-2-((5-ethyl-2-methoxy-4-(4-(4-methylpiperazin-1-yl)piperidin-1-yl)phenyl)amino)pyrimidin-4-yl)amino)-5-(5-cyclopropylpyrazin-2-yl)phenyl)dimethylphosphine oxide] | 191 | 0.4 | 18.1 | 5650 | 10.7 | – | –
CCc1cc(Nc2ncc(Br)c(Nc3ccc(-c4cnc(C)cn4)cc3P(C)(C)=O)n2)c(OC)cc1N1CCC(N2CCN(C)CC2)CC1 [Compound 80, (2-((5-Bromo-2-((5-ethyl-2-methoxy-4-(4-(4-methylpiperazin-1-yl)piperidin-1-yl)phenyl)amino)pyrimidin-4-yl)amino)-5-(5-methylpyrazin-2-yl)phenyl)dimethylphosphine oxide] | 81 | 0.2 | 12.8 | 4610 | 8.2 | – | –
CCc1cc(Nc2ncc(Br)c(Nc3ccc(-c4cnc(C)c(C)n4)cc3P(C)(C)=O)n2)c(OC)cc1N1CCC(N2CCN(C)CC2)CC1 [Compound 81, (2-((5-Bromo-2-((5-ethyl-2-methoxy-4-(4-(4-methylpiperazin-1-yl)piperidin-1-yl)phenyl)amino)pyrimidin-4-yl)amino)-5-(5,6-dimethylpyrazin-2-yl)phenyl)dimethylphosphine oxide] | 142 | 0.6 | 12.6 | 875 | 16.8 | – | –
CCc1cc(Nc2ncc(Br)c(Nc3ccc(-c4ccc(C)nc4)cc3P(C)(C)=O)n2)c(OC)cc1N1CCC(N2CCN(C)CC2)CC1 [Compound 82, (2-((5-Bromo-2-((5-ethyl-2-methoxy-4-(4-(4-methylpiperazin-1-yl)piperidin-1-yl)phenyl)amino)pyrimidin-4-yl)amino)-5-(6-methylpyridin-3-yl)phenyl)dimethylphosphine oxide] | 179 | 0.5 | 29.1 | 1620 | 27.6 | – | –
CCc1cc(Nc2ncc(Br)c(Nc3ccc(-c4ccc(C)cn4)cc3P(C)(C)=O)n2)c(OC)cc1N1CCC(N2CCN(C)CC2)CC1 [Compound 83, (2-((5-Bromo-2-((5-ethyl-2-methoxy-4-(4-(4-methylpiperazin-1-yl)piperidin-1-yl)phenyl)amino)pyrimidin-4-yl)amino)-5-(5-methylpyridin-2-yl)phenyl)dimethylphosphine oxide] | 180 | 0.3 | 29.4 | 1430 | 20.1 | – | –
CCc1cc(Nc2ncc(Br)c(Nc3ccc(-n4cc(C)cn4)cc3P(C)(C)=O)n2)c(OC)cc1N1CCC(N2CCN(C)CC2)CC1 [Compound 86, (2-((5-Bromo-2-((5-ethyl-2-methoxy-4-(4-(4-methylpiperazin-1-yl)piperidin-1-yl)phenyl)amino)pyrimidin-4-yl)amino)-5-(4-methyl-1H-pyrazol-1-yl)phenyl)dimethylphosphine oxide] | 219 | 0.7 | 26.7 | 1610 | 37.4 | – | –
CCc1cc(Nc2ncc(Br)c(Nc3ccc(-c4ncc(C(C)C)cn4)cc3P(C)(C)=O)n2)c(OC)cc1N1CCC(N2CCN(C)CC2)CC1 [Compound K-056, (2-((5-Bromo-2-((5-ethyl-2-methoxy-4-(4-(4-methylpiperazin-1-yl)piperidin-1-yl)phenyl)amino)pyrimidin-4-yl)amino)-5-(5-isopropylpyrimidin-2-yl)phenyl)dimethylphosphine oxide] | – | – | – | – | – | 524 | –
CCc1cc(Nc2ncc(Br)c(Nc3ccc(-c4cnc(N(C)C)nc4)cc3P(C)(C)=O)n2)c(OC)cc1N1CCC(N2CCN(C)CC2)CC1 [Compound K-057, (2-((5-Bromo-2-((5-ethyl-2-methoxy-4-(4-(4-methylpiperazin-1-yl)piperidin-1-yl)phenyl)amino)pyrimidin-4-yl)amino)-5-(2-(dimethylamino)pyrimidin-5-yl)phenyl)dimethylphosphine oxide] | – | – | – | – | – | 206 | –
CCOc1ncc(-c2ccc(Nc3nc(Nc4cc(CC)c(N5CCC(N6CCN(C)CC6)CC5)cc4OC)ncc3Br)c(P(C)(C)=O)c2)cn1 [Compound K-059, (2-((5-Bromo-2-((5-ethyl-2-methoxy-4-(4-(4-methylpiperazin-1-yl)piperidin-1-yl)phenyl)amino)pyrimidin-4-yl)amino)-5-(2-ethoxypyrimidin-5-yl)phenyl)dimethylphosphine oxide] | – | – | – | – | – | 352 | –
CCc1cc(Nc2ncc(Cl)c(Nc3ccc(-c4nn(C)cc4C#N)cc3P(C)(C)=O)n2)c(OC)cc1N1CCC(N2CCN(C)CC2)CC1 [Compound K-060, 3-(4-((5-Chloro-2-((5-ethyl-2-methoxy-4-(4-(4-methylpiperazin-1-yl)piperidin-1-yl)phenyl)amino)pyrimidin-4-yl)amino)-3-(dimethylphosphineoxide)phenyl)-1-methyl-1H-pyrazol-4-carbonitrile] | – | – | – | – | – | 293 | –
(2-((5-Bromo-2-((5-ethyl-2-methoxy-4-(4-(4-methylpiperazin-1-yl)piperidin-1-yl)phenyl)amino]amino]pyrimidin-4-yl)amino)-5-(4-methoxy-1H-pyrazol-1-yl)phenyl)dimethylphosphine oxide [Compound 50] | 268 | 0.2 | 32 | – | 19.1 | – | 1510
